Values quoted from earlier work as cited in patent US12029741B1, “5 beta dihydrotestosterone pharmaceutical formulations and related methods” (priority 2021, dated 2024).

What was measured:
[1] = transdermal treatment; called an estimate
[2] = system: Vascular Vessels; conditions: result in words

SMILES | terminal half-life [1] [h] | efficacy as a vasodilator compared with testosterone [2]
C[C@]12CC[C@H]3[C@@H](CCC4=CC(=O)CC[C@@]43C)[C@@H]1CC[C@@H]2O [testosterone] | 1.29 | 
C[C@]12CCC(=O)C[C@H]1CC[C@@H]1[C@@H]2CC[C@]2(C)[C@@H](O)CC[C@@H]12 [5β-DHT, 17β-hydroxy-5β-androstan-3-one] |  | more efficacious and/or potent than testosterone
C[C@]12CCC(=O)C[C@@H]1CC[C@@H]1[C@@H]2CC[C@]2(C)[C@@H](O)CC[C@@H]12 [5α-DHT, 5α-dihydrotestosterone] | 2.83 | less efficacious than testosterone
